Measured values taken from PMC8550792, “Evolution of kinase polypharmacology across HSP90 drug discovery” (Cell Chemical Biology, 2021).
Several values for one entry are separate records, joined by “and”; a condition that tells them apart may be missing. Identical values can stand only once. Like-named read-outs stand apart in the source and are kept apart here. Blank lines part the entries; values can stand above or below the molecule they belong to.

What was measured:
382 unique human kinases [1] = molecular target: T1, 382 unique human kinases (Homo sapiens, UniProt P42345); experiment: biochemical; format: biochemical; settings: mTOR/FRAP1; compound at 10 uM; duplicate values; read-out: % Enzyme Activity (relative to DMSO controls)
T1 construct: purchased Reaction Biology (HotSpot contract assay)

TRKA-TFG (TRK-T3) = molecular target: T2, TRKA-TFG (TRK-T3) (Homo sapiens, UniProt P04629+Q92734); experiment: HotSpot in vitro kinase radiometric assay; format: biochemical
T2 construct: purchased Reaction Biology (HotSpot contract assay)
T2 sequence (Q92734+P04629 fused): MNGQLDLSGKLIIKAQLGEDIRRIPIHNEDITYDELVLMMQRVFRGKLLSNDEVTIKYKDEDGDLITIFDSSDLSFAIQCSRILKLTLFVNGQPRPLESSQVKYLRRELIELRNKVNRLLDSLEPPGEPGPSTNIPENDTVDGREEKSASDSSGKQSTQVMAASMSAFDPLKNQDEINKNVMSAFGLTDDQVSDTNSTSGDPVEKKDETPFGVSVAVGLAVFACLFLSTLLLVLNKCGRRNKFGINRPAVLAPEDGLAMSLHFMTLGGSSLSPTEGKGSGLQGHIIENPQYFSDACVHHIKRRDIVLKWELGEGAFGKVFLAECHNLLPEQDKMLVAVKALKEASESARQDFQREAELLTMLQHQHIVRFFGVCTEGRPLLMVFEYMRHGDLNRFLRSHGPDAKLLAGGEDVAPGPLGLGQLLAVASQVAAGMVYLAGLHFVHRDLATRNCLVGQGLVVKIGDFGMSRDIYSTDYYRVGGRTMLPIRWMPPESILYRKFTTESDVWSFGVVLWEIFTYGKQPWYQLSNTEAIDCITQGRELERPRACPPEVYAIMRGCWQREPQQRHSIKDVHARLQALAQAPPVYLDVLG

382 unique human kinases [2] = molecular target: T3, 382 unique human kinases (Homo sapiens, UniProt P57078); experiment: biochemical; format: biochemical; settings: kinase RIPK4, compound 10 uM
T3 construct: purchased Reaction Biology (HotSpot contract assay)

382 unique human kinases [3] = molecular target: T4, 382 unique human kinases (Homo sapiens, UniProt P07947, T348I); experiment: biochemical; format: biochemical; settings: YES1 (T348I), compound at 10 uM, duplicate values
T4 construct: purchased Reaction Biology (HotSpot contract assay)

382 unique human kinases [4] = molecular target: T5, 382 unique human kinases (Homo sapiens, UniProt P04626, V777L); experiment: biochemical; format: biochemical; settings: ERBB2 (V777L), compound at 10 uM, duplicate values
T5 construct: purchased Reaction Biology (HotSpot contract assay)

382 unique human kinases [5] = molecular target: T6, 382 unique human kinases (Homo sapiens, UniProt P00533, C797S/L858R/T790M); experiment: biochemical; format: biochemical; settings: EGFR (T790M/C797S/L858R), compound at 10 uM, duplicate values
T6 construct: purchased Reaction Biology (HotSpot contract assay)

HSP90AA1 = settings: cited from earlier work; for pActivity, HSP90AA1: average of reported values, ref ChEMBL23 (accessed: 23/08/2018)
FYN = molecular target: T7, FYN (Homo sapiens, UniProt P06241); experiment: HotSpot in vitro kinase radiometric assay; format: biochemical; settings: for inhibition at 10 µM: read-out: % inhibition at 10 uM: FYN, Fig 6C median ± standard deviation (n = 2)
T7 construct: purchased Reaction Biology (HotSpot contract assay)
T7 sequence (P06241 whole entry): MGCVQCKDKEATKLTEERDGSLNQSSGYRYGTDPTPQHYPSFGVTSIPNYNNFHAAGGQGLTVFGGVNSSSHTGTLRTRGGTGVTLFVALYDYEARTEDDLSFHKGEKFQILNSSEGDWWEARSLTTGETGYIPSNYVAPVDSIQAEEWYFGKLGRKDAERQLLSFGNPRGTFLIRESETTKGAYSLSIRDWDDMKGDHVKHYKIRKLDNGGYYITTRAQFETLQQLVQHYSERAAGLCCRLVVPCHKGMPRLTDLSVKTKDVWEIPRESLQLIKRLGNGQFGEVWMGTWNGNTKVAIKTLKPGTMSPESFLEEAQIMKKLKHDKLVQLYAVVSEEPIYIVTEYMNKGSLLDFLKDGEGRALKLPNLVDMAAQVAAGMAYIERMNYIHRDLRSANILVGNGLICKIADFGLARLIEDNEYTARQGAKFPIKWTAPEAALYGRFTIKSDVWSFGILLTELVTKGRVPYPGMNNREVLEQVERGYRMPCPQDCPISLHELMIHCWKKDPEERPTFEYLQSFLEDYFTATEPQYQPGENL

LCK = molecular target: T8, LCK (Homo sapiens, UniProt P06239); experiment: HotSpot in vitro kinase radiometric assay; format: biochemical; settings: for inhibition at 10 µM: read-out: % inhibition at 10 uM: LCK, Fig 6C median ± standard deviation (n = 2)
T8 construct: purchased Reaction Biology (HotSpot contract assay)
T8 sequence (P06239 whole entry): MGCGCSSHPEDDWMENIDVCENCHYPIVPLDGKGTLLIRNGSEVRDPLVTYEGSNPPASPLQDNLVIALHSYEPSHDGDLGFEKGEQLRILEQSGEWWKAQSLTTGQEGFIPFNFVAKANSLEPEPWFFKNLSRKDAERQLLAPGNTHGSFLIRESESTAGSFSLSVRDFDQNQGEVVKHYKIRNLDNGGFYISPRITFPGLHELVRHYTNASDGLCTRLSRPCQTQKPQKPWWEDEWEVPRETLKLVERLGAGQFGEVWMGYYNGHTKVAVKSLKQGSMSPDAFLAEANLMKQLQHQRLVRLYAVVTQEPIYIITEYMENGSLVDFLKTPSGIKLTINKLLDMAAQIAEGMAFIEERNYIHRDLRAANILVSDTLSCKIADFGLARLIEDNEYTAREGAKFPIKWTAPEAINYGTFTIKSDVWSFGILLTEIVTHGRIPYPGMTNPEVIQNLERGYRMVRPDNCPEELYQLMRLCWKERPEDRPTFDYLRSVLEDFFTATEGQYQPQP

TRKC = molecular target: T9, TRKC (Homo sapiens, UniProt Q16288); experiment: HotSpot in vitro kinase radiometric assay; format: biochemical; settings: for inhibition at 10 µM: read-out: % inhibition at 10 uM: TRKC, Fig 6C median ± standard deviation (n = 2)
T9 construct: purchased Reaction Biology (HotSpot contract assay)
T9 sequence (Q16288 32-839): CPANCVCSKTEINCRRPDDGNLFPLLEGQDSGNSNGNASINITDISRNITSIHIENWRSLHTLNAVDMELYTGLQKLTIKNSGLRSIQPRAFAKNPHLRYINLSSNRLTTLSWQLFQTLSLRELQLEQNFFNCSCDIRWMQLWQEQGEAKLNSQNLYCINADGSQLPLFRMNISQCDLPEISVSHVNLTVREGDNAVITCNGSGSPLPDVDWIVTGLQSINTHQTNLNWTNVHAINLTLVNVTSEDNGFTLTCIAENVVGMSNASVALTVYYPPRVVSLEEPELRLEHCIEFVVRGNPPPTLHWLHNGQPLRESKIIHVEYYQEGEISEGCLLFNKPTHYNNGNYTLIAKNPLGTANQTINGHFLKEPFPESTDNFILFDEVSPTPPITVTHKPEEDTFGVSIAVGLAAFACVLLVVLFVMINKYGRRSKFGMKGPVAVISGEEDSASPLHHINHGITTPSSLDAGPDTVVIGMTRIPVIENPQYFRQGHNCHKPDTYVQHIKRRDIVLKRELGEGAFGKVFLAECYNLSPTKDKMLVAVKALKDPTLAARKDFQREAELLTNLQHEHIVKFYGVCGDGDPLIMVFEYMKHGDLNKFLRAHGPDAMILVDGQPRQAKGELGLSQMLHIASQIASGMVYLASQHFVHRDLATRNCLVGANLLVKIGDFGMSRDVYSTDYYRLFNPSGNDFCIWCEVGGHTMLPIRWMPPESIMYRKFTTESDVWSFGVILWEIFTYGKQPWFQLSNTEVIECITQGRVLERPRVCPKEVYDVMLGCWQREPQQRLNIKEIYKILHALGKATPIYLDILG

382 unique human kinases [6] = molecular target: T10, 382 unique human kinases (Homo sapiens, UniProt P00519, V299L); experiment: biochemical; format: biochemical; settings: ABL1 (V299L), [ATP] 5 µM, compound 10 uM
T10 construct: purchased Reaction Biology (HotSpot contract assay)

382 unique human kinases [7] = molecular target: T11, 382 unique human kinases (Homo sapiens, UniProt P04626, D769Y); experiment: biochemical; format: biochemical; settings: ERBB2 (D769Y), 10 uM
T11 construct: purchased Reaction Biology (HotSpot contract assay)

382 unique human kinases [8] = molecular target: T12, 382 unique human kinases (Homo sapiens, UniProt P15056, G469A); experiment: biochemical; format: biochemical; settings: BRAF (G469A), 10 uM
T12 construct: purchased Reaction Biology (HotSpot contract assay)

382 unique human kinases [9] = molecular target: T13, 382 unique human kinases (Homo sapiens, UniProt P15056, V600D); experiment: biochemical; format: biochemical; settings: BRAF (V600D), 10 uM
T13 construct: purchased Reaction Biology (HotSpot contract assay)

382 unique human kinases [10] = molecular target: T14, 382 unique human kinases (Homo sapiens, UniProt P15056, G464V); experiment: biochemical; format: biochemical; settings: BRAF (G464V), 10 uM
T14 construct: purchased Reaction Biology (HotSpot contract assay)

382 unique human kinases [11] = molecular target: T15, 382 unique human kinases (Homo sapiens, UniProt Q96S53); experiment: biochemical; format: biochemical; settings: TESK2, 10 uM
T15 construct: purchased Reaction Biology (HotSpot contract assay)

382 unique human kinases [12] = molecular target: T16, 382 unique human kinases (Homo sapiens, UniProt P00519, F317L); experiment: biochemical; format: biochemical; settings: ABL1 (F317L), [ATP] 5 µM, compound 10 uM
T16 construct: purchased Reaction Biology (HotSpot contract assay)

FGR = molecular target: T17, FGR (Homo sapiens, UniProt P09769); experiment: HotSpot in vitro kinase radiometric assay; format: biochemical; settings: for inhibition at 10 µM: read-out: % inhibition at 10 uM: FGR, Fig 6C median ± standard deviation (n = 2)
T17 construct: purchased Reaction Biology (HotSpot contract assay)
T17 sequence (P09769 whole entry): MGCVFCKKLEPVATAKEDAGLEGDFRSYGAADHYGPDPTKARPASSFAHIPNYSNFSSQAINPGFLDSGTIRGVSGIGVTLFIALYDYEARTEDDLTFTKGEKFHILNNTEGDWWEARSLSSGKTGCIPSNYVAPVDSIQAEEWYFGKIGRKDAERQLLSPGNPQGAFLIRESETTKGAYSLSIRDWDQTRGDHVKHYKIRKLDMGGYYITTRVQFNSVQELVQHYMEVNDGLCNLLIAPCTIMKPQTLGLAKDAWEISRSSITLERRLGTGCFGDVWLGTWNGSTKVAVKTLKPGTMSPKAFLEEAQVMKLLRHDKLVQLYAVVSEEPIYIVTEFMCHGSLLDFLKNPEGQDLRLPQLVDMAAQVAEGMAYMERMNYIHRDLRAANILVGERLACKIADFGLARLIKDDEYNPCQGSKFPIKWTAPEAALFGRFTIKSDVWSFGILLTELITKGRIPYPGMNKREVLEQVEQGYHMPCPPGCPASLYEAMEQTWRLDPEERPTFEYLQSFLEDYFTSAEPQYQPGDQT

PASK = molecular target: T18, PASK (Homo sapiens, UniProt Q96RG2); experiment: HotSpot in vitro kinase radiometric assay; format: biochemical; settings: for inhibition at 10 µM: read-out: % inhibition at 10 uM: PASK, Fig 6C median ± standard deviation (n = 2)
T18 construct: purchased Reaction Biology (HotSpot contract assay)
T18 sequence (Q96RG2 whole entry): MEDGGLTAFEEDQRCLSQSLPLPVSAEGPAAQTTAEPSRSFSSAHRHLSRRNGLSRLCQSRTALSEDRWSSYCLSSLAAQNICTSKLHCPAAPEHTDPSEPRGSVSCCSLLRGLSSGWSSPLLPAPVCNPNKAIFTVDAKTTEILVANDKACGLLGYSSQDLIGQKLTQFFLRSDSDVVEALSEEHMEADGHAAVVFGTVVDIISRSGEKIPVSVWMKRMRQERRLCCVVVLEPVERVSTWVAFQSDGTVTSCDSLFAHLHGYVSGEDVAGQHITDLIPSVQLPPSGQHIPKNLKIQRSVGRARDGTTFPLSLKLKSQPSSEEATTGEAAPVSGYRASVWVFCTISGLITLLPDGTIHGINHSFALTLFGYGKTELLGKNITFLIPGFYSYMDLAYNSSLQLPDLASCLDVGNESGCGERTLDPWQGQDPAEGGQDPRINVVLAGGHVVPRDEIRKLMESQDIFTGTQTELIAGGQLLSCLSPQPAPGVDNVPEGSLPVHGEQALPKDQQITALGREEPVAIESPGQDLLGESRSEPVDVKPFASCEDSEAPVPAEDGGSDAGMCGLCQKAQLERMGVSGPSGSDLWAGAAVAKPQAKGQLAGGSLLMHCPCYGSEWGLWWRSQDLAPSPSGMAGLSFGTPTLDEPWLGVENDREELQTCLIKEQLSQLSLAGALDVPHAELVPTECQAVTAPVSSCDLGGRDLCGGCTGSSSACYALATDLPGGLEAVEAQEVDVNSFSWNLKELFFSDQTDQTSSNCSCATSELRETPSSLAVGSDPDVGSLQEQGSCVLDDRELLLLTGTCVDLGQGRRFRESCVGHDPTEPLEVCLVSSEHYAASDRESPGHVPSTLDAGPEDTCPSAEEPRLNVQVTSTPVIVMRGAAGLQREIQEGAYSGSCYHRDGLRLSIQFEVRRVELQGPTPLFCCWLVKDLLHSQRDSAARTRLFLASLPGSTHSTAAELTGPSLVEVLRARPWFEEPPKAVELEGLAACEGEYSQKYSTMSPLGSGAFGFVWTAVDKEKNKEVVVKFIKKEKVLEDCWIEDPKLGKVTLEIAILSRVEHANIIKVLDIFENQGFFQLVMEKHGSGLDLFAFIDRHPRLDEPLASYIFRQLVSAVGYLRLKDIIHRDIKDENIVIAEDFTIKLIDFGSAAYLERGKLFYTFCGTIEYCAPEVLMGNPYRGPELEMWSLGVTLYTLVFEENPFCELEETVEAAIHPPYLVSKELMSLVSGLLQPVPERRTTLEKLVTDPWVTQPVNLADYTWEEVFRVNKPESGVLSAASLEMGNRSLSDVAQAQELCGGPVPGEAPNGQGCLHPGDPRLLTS
Method in brief: (§1)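 Product formation was detected via radiolabelled phosphate transferred from ɣ-ATP (32P or 33P) and captured on filter paper after spotting. The kinase reactions included substrate, cofactors and compound, with no antibodies or coupling enzymes involved.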

TRKA = molecular target: T19, TRKA (Homo sapiens, UniProt P04629); experiment: HotSpot in vitro kinase radiometric assay; format: biochemical; settings: for inhibition at 10 µM: read-out: % inhibition at 10 uM: TRKA, Fig 6C median ± standard deviation (n = 2)
T19 construct: purchased Reaction Biology (HotSpot contract assay)
T19 sequence (P04629 33-796): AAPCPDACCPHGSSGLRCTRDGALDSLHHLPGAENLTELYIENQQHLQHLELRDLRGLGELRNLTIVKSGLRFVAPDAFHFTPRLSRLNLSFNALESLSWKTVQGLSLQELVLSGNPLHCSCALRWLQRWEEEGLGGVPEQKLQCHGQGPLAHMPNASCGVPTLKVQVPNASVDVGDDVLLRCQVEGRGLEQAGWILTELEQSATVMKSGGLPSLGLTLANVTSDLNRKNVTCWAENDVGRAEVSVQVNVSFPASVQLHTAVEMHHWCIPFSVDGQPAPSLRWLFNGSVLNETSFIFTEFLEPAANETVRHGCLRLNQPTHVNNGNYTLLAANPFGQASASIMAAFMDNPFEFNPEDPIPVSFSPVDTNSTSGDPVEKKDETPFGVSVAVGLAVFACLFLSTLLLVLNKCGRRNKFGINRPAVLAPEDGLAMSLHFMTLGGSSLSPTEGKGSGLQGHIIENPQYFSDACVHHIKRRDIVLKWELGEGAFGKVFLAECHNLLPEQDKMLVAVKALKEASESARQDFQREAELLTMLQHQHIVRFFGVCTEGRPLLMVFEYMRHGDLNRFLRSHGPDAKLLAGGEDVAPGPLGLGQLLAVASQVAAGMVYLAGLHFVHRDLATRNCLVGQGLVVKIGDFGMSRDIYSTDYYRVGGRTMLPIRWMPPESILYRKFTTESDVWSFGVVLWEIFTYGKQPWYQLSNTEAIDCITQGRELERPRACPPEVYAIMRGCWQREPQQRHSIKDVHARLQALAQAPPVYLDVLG
Method in brief: as §1

PEAK1 = molecular target: T20, PEAK1 (Homo sapiens, UniProt Q9H792); experiment: HotSpot in vitro kinase radiometric assay; format: biochemical; settings: for inhibition at 10 µM: read-out: % inhibition at 10 uM: PEAK1, 10 μM
T20 construct: purchased Reaction Biology (HotSpot contract assay)

PDK2/PDHK2 = molecular target: T21, PDK2/PDHK2 (Homo sapiens, UniProt Q15119); experiment: HotSpot in vitro kinase radiometric assay; format: biochemical; settings: for inhibition at 10 µM: read-out: % inhibition at 10 uM: PDK2, Fig 6C median ± standard deviation (n = 2)
T21 construct: purchased Reaction Biology (HotSpot contract assay)
Method in brief: as §1

[13] = radiometric 10-point concentration-response, n = 3, read-out: in vitro biochemical IC50, TRKA-TFG
[14] = read-out: % Enzyme Activity (relative to DMSO controls)
[15] = Fig 6C median ± standard deviation (n = 2)

SMILES: CC(C)c1cc(-c2n[nH]c(=O)n2-c2ccc3c(ccn3C)c2)c(O)cc1O [Ganetespib (STA9090)]
remaining activity at 10 µM (382 unique human kinases [1]): 107%

SMILES: CC(C)c1cc(-c2n[nH]c(=O)n2-c2ccc3c(ccn3C)c2)c(O)cc1O [Ganetespib]
HILLSLOPE (TRKA-TFG (TRK-T3); TRKA-TFG, single replicate curves): -1.03 and -1.06 and -1.02 | IC50 (TRKA-TFG (TRK-T3); TRKA-TFG, single replicate curves, read-out: IC50): 0.328 µM and 0.331 µM and 0.326 µM | IC50 (TRKA-TFG (TRK-T3); [13]): 0.329 µM | inhibition at 1 µM (TRKA-TFG (TRK-T3); read-out: % inhibition of TRKA-TFG at 1 μM, 1 μM, secondary screening): > 80% | inhibition at 10 µM (TRKA-TFG (TRK-T3); read-out: % inhibition of TRKA-TFG at 10 μM, 10 μM, kinome profiling): > 85%

SMILES: CCNC(=O)c1noc(-c2cc(C(C)C)c(O)cc2O)c1-c1ccc(CN2CCOCC2)cc1 [Luminespib (AUY-922)]
% Enzyme Activity (relative to DMSO controls) (382 unique human kinases [2]): 85.29% | remaining activity at 10 µM (382 unique human kinases [2]; [14]): 87.2% | % Enzyme Activity (relative to DMSO controls) (382 unique human kinases [3]): 101.23% | remaining activity at 10 µM (382 unique human kinases [3]; [14]): 103% | % Enzyme Activity (relative to DMSO controls) (382 unique human kinases [4]): 104.18% | remaining activity at 10 µM (382 unique human kinases [4]; [14]): 105% | % Enzyme Activity (relative to DMSO controls) (382 unique human kinases [5]): 100.18% | remaining activity at 10 µM (382 unique human kinases [5]; [14]): 100%

SMILES: CCNC(=O)c1noc(-c2cc(C(C)C)c(O)cc2O)c1-c1ccc(CN2CCOCC2)cc1 [Luminespib]
pActivity, HSP90AA1 (HSP90AA1): 8.01 | inhibition at 10 µM (FYN): 35% | inhibition at 10 µM (LCK): 40 ± 2% | inhibition at 10 µM (TRKC): 4 ± 2% | % Enzyme Activity (relative to DMSO controls) (382 unique human kinases [6]): 31.43% | remaining activity at 10 µM (382 unique human kinases [6]; [14]): 31.8% | % Enzyme Activity (relative to DMSO controls) (382 unique human kinases [7]): 99.76% | remaining activity at 10 µM (382 unique human kinases [7]; [14]): 100% | % Enzyme Activity (relative to DMSO controls) (382 unique human kinases [8]): 98.83% | remaining activity at 10 µM (382 unique human kinases [8]; [14]): 99.7% | % Enzyme Activity (relative to DMSO controls) (382 unique human kinases [9]): 98.35% | remaining activity at 10 µM (382 unique human kinases [9]; [14]): 100% | % Enzyme Activity (relative to DMSO controls) (382 unique human kinases [10]): 97.60% | remaining activity at 10 µM (382 unique human kinases [10]; [14]): 97.9% | % Enzyme Activity (relative to DMSO controls) (382 unique human kinases [11]): 98.62% | remaining activity at 10 µM (382 unique human kinases [11]; [14]): 100% | % Enzyme Activity (relative to DMSO controls) (382 unique human kinases [12]): 5.92% | remaining activity at 10 µM (382 unique human kinases [12]; [14]): 6.23% | inhibition at 10 µM (FGR): 66 ± 1% | inhibition at 10 µM (PASK): 1% | inhibition at 10 µM (TRKA): -1% | IC50 (TRKA-TFG (TRK-T3); [13]): > 10 µM | % inhibition at 10 uM: PEAK1 (PEAK1; 10 μM, Fig 6C median ± standard deviation (n = 2)): 70 ± 1% | inhibition at 10 µM (PEAK1; [15]): > 70% | inhibition at 10 µM (PDK2/PDHK2): 78 ± 1%

% Enzyme Activity (relative to DMSO controls) (FYN; FYN, 10uM, ATP 30 uM, Data 1, Data 2): 116.15% | remaining activity at 10 µM (FYN; FYN, 10uM, ATP 30 uM, Data 1, Data 2, read-out: % Enzyme Activity (relative to DMSO controls)): 109% | inhibition at 10 µM (FYN): -13 ± 5% | % Enzyme Activity (relative to DMSO controls) (LCK; LCK, 10uM, ATP 15 uM, Data 1, Data 2): 102.22% | remaining activity at 10 µM (LCK; LCK, 10uM, ATP 15 uM, Data 1, Data 2, read-out: % Enzyme Activity (relative to DMSO controls)): 111% | inhibition at 10 µM (LCK): -6 ± 6% | % Enzyme Activity (relative to DMSO controls) (TRKC; TRKC, 10uM, ATP 100 uM, Data 1, Data 2): 86.46% | remaining activity at 10 µM (TRKC; TRKC, 10uM, ATP 100 uM, Data 1, Data 2, read-out: % Enzyme Activity (relative to DMSO controls)): 94.2% | inhibition at 10 µM (TRKC): 10 ± 5% | % Enzyme Activity (relative to DMSO controls) (FGR; FGR, 10uM, ATP 50 uM, Data 1, Data 2): 109.55% | remaining activity at 10 µM (FGR; FGR, 10uM, ATP 50 uM, Data 1, Data 2, read-out: % Enzyme Activity (relative to DMSO controls)): 104% | inhibition at 10 µM (FGR): -7 ± 4% | % Enzyme Activity (relative to DMSO controls) (PASK; PASK, 10uM, ATP 50 uM, Data 1, Data 2): 102.75% | remaining activity at 10 µM (PASK; PASK, 10uM, ATP 50 uM, Data 1, Data 2, read-out: % Enzyme Activity (relative to DMSO controls)): 109% | inhibition at 10 µM (PASK): -6 ± 5% | % Enzyme Activity (relative to DMSO controls) (TRKA; TRKA, 10uM, ATP 100 uM, Data 1, Data 2): 96.8% | remaining activity at 10 µM (TRKA; TRKA, 10uM, ATP 100 uM, Data 1, Data 2, read-out: % Enzyme Activity (relative to DMSO controls)): 100% | inhibition at 10 µM (TRKA): 2 ± 2% | % Enzyme Activity (relative to DMSO controls) (PEAK1; PEAK1, 10uM, ATP 30 uM, Data 1, Data 2): 104.61% | remaining activity at 10 µM (PEAK1; PEAK1, 10uM, ATP 30 uM, Data 1, Data 2, read-out: % Enzyme Activity (relative to DMSO controls)): 105% | inhibition at 10 µM (PEAK1; [15]): -5 ± 1% | % Enzyme Activity (relative to DMSO controls) (PDK2/PDHK2; PDK2/PDHK2, 10uM, ATP 15 uM, Data 1, Data 2): 9.11% and 0.34% | inhibition at 10 µM (PDK2/PDHK2): 95 ± 6%
SMILES: CCNC(=O)c1noc(-c2cc(Cl)c(O)cc2O)c1-c1ccc(OC)cc1 [VER-50589]
IC50 (HSP90AA1; Fig 6C, IC50 against HSP90 shown for comparison, source not given): 0.021 µM | pActivity, HSP90AA1 (HSP90AA1): 7.55
